Experimental data published in patent US20250114345A1, “COMPOUNDS AND COMPOSITIONS AS CBP/P300 DEGRADERS AND USES THEREOF” (Oncopia Therapeutics, Inc. d/b/a/ SK Life Science Labs, priority 2023, published 2025).

Experiments:
p300 = molecular target: T1, p300 (Homo sapiens, UniProt Q09472); assay: P300 degradation, HiBit technology in A549 P300 HiBit cells (2 h); type: cell-based; details: 2 hrs post treatment; for Dmax: A549, A549 P300 HiBit cells
T1 construct: host or cells: A549 P300 HiBit cells
Method in brief: (§1)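 HiBiT knock-in A549 cells received compound in serial dilution at 37 °C under 5% CO2. Remaining tagged protein was quantified by lytic HiBiT luminescence after 10 min shaking at room temperature, yielding potency and maximal degradation.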

CBP = molecular target: T2, CBP (Homo sapiens, UniProt Q92793); assay: CBP degradation, HiBit technology in A549 CBP HiBit cells (24 h); type: cell-based; details: 24 hrs post treatment
T2 construct: host or cells: A549 CBP HiBit cells
Method in brief: as §1

T2 sequence (Q92793 whole entry): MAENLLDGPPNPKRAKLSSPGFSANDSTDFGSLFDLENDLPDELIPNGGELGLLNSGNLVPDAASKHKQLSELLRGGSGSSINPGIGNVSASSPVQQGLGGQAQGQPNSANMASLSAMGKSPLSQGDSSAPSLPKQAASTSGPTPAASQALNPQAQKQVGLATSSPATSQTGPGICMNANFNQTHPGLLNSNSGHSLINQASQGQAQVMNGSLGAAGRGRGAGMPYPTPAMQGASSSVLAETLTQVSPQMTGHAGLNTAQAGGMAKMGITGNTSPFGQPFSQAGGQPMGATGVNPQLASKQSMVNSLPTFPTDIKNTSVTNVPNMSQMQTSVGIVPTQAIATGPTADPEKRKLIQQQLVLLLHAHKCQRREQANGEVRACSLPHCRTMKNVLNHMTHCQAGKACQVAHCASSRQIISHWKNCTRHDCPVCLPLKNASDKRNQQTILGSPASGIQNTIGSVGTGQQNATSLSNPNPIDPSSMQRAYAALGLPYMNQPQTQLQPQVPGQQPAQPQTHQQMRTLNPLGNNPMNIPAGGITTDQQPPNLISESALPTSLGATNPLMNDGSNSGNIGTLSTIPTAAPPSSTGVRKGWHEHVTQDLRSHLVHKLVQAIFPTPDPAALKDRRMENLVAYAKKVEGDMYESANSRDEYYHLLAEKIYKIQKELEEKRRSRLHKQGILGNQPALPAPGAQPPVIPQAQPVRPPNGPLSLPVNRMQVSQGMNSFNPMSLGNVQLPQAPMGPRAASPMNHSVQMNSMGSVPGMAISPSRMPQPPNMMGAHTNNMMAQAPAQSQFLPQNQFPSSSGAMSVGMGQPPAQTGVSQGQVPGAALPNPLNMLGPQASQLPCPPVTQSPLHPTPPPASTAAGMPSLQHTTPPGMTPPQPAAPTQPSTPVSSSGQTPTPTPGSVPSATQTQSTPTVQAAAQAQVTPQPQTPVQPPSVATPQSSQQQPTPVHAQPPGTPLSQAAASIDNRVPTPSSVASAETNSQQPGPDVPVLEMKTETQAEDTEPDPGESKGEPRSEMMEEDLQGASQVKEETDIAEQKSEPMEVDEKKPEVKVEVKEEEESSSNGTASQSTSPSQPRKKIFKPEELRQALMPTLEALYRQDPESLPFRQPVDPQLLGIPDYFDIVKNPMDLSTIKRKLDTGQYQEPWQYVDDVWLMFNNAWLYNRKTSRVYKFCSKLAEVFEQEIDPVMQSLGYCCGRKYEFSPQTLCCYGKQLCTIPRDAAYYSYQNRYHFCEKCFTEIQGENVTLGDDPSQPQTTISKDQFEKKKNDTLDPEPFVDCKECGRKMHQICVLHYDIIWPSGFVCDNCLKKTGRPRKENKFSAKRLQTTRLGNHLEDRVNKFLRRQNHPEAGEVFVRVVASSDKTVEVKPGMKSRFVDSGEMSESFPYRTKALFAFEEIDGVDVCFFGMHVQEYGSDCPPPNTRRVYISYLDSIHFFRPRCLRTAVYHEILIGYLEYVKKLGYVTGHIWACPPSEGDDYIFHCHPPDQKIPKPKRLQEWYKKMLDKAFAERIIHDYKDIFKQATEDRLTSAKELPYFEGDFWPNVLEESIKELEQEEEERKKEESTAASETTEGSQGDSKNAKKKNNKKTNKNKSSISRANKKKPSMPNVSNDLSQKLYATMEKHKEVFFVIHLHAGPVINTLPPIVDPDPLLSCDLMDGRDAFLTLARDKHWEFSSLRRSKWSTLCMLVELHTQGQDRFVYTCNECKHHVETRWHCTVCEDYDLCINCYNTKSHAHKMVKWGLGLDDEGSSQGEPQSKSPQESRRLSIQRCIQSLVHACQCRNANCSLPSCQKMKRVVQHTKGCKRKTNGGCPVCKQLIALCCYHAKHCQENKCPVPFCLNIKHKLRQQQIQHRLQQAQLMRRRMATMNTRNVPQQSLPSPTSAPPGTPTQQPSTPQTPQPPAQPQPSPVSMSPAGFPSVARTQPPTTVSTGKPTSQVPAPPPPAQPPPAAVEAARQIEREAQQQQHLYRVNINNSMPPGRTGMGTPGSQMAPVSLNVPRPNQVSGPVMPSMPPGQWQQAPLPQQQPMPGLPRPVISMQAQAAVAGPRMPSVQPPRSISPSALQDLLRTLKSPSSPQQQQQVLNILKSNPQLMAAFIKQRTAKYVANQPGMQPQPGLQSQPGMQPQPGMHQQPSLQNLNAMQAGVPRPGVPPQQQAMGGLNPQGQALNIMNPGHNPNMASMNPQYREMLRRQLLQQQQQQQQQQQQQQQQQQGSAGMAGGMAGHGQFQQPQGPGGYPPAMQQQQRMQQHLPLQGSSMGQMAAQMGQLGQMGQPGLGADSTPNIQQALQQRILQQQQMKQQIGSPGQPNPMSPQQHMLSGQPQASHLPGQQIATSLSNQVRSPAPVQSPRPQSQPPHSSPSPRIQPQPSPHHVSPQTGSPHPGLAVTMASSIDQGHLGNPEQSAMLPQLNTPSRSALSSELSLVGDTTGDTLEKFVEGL
T1 sequence (Q09472 whole entry): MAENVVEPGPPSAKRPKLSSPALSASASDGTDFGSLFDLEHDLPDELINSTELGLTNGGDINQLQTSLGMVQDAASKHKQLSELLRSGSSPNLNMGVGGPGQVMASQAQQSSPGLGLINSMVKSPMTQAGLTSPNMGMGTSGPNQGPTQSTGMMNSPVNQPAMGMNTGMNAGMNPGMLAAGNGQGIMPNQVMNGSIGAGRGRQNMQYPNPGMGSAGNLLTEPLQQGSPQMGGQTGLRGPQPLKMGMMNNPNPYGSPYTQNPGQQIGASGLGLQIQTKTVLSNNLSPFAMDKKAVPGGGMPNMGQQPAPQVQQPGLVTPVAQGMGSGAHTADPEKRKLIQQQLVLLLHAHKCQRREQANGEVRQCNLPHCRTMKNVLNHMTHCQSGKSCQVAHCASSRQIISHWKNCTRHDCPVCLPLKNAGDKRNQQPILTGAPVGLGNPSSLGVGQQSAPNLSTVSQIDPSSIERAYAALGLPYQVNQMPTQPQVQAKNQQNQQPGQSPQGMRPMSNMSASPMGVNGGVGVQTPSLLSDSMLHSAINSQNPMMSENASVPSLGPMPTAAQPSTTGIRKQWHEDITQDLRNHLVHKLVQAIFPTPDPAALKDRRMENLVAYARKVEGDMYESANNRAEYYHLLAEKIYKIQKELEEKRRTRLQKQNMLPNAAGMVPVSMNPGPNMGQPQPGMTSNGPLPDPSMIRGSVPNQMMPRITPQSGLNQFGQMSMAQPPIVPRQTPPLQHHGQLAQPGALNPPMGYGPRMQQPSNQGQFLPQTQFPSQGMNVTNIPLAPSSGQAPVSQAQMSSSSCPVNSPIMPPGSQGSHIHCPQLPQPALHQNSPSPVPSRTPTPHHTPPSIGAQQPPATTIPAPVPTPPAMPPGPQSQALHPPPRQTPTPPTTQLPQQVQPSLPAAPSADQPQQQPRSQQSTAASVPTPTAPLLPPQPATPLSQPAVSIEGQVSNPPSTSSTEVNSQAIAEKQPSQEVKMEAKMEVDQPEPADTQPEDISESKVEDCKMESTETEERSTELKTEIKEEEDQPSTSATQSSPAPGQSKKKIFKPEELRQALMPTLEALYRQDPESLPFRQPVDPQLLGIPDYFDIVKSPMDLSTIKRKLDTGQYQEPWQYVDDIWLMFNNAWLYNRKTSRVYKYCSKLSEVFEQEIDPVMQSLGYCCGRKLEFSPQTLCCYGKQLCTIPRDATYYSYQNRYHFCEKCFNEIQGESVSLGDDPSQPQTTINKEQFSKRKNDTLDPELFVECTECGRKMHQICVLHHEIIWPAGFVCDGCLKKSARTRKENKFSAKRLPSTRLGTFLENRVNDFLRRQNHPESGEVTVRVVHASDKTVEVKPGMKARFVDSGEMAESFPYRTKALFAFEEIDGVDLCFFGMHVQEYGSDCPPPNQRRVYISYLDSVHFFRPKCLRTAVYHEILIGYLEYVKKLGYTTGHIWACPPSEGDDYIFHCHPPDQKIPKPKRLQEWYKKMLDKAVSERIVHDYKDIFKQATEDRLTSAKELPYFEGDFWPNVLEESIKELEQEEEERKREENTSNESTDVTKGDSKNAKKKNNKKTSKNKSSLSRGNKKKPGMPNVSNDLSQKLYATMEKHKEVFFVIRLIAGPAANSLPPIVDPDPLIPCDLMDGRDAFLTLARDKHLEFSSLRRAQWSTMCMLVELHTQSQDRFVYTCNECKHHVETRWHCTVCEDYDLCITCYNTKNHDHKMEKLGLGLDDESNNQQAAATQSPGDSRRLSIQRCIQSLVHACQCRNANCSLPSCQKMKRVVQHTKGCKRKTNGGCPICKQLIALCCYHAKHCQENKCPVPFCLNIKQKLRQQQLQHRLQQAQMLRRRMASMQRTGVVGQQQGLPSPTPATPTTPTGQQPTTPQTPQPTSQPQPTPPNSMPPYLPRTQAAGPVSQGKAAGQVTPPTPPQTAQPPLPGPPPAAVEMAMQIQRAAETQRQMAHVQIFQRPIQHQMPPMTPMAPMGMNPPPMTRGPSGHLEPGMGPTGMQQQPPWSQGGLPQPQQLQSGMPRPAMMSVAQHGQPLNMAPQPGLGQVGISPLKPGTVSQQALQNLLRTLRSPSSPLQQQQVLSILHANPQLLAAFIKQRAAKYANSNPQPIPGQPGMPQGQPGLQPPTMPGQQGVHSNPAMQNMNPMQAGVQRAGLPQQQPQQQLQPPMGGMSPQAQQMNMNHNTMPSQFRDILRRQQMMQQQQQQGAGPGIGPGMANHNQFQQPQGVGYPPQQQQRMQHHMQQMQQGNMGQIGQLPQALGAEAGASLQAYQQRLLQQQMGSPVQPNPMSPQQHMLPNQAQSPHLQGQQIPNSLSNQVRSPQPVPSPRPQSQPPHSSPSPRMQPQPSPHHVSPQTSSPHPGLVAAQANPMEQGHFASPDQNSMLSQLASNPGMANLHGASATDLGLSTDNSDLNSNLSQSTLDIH

Q: Which results are given for `Cc1cc2c(N3CCCc4nc(-c5ccc(C(=O)NCC#Cc6cc7c(C8CCC(=O)NC8=O)cccc7o6)nc5)ncc43)cc(C3CCOCC3)nc2n(C)c1=O` (stereo not drawn) [Example B47, 5-(5-(6,8-dimethyl-7-oxo-2-(tetrahydro-2H-pyran-4-yl)-7,8-dihydro-1,8-naphthyridin-4-yl)-5,6,7,8-tetrahydropyrido[3,2-d]pyrimidin-2-yl)-N-(3-(4-(2,6-dioxopiperidin-3-yl)benzofuran-2-yl)prop-2-yn-1-yl)picolinamide]?
A: Dmax (p300): > 80%; DC50 (p300; A549 P300 HiBit cells): < 1 nM; DC50 (CBP): > 1000 nM; Dmax (CBP): < 20%

Q: For `Cn1c(=O)n(C)c2cc(-c3cccc4cc(-c5ccc(C(=O)NCC#Cc6ccc7occ(C8CCC(=O)NC8=O)c7c6)nc5)ncc34)ccc21` (stereo not drawn) [Example A119, 5-(8-(1,3-dimethyl-2-oxo-2,3-dihydro-1H-benzo[d]imidazol-5-yl)isoquinolin-3-yl)-N-(3-(3-(2,6-dioxo-piperidin-3-yl)benzofuran-5-yl)prop-2-yn-1-yl)picolinamide], which Dmax (p300) is on record?
A: > 80%

Q: And the DC50 (p300; A549 P300 HiBit cells)?
A: 1 to 9.9 nM

Q: What about the DC50 (CBP) of the same molecule?
A: > 1000 nM

Q: What about the Dmax (CBP) of the same molecule?
A: < 20%

Q: Which results are given for `Cc1cc(-c2ccc3c(c2)n(C)c(=O)n3C)c2cnc(-c3ccc(C(=O)NCC#Cc4ccc5occ(C6CCC(=O)NC6=O)c5c4)nc3)cc2c1` (stereo not drawn) [Example A84, 5-(8-(1,3-dimethyl-2-oxo-2,3-dihydro-1H-benzo[d]imidazol-5-yl)-6-methylisoquinolin-3-yl)-N-(3-(3-(2,6-dioxo-piperidin-3-yl)benzofuran-5-yl)prop-2-yn-1-yl) picolinamide]?
A: Dmax (p300): > 80%; DC50 (p300; A549 P300 HiBit cells): 10 to 99 nM; DC50 (CBP): > 1000 nM; Dmax (CBP): < 20%

Q: `Cc1cc(-c2ncc3c(n2)OCCN3c2ccc3c(c2)n(C)c(=O)n3C)cnc1C(=O)NCC#Cc1ccc2occ(C3CCC(=O)NC3=O)c2c1` (stereo not drawn) [Example A93, 5-(5-(1,3-dimethyl-2-oxo-2,3-dihydro-1H-benzo[d]imidazol-5-yl)-6,7-dihydro-5H-pyrimido[4,5-b][1,4]oxazin-2-yl)-N-(3-(3-(2,6-dioxopiperidin-3-yl)benzofuran-5-yl)prop-2-yn-1-yl)-3-methylpicolinamide] was tested. Which DC50 (p300; A549 P300 HiBit cells) did it give?
A: 10 to 99 nM

Q: And the “P300 A549 2 h HiBit DMax (%)” value (p300; A549 P300 HiBit cells)?
A: D (“D”: 20-39%)

Q: What about the “CBP A549 24 h HiBit DMax (%)” value (CBP) of the same molecule?
A: E (“E”: < 20%)

Q: And the DC50 (CBP)?
A: > 1000 nM

Q: For `Cc1cc(-c2ncc3c(n2)OCCN3c2ccc3c(c2)n(C)c(=O)n3C)cnc1C(=O)NCC#Cc1cc2c(C3CCC(=O)NC3=O)ccc(F)c2o1` (stereo not drawn) [Example A203, 5-(5-(1,3-dimethyl-2-oxo-2,3-dihydro-1H-benzo[d]imidazol-5-yl)-6,7-dihydro-5H-pyrimido[4,5-b][1,4]oxazin-2-yl)-N-(3-(4-(2,6-dioxopiperidin-3-yl)-7-fluoro-benzofuran-2-yl)prop-2-yn-1-yl)-3-methylpicolinamide], which Dmax (p300) is on record?
A: 60 to 79%

Q: And the DC50 (p300; A549 P300 HiBit cells)?
A: 10 to 99 nM

Q: What about the DC50 (CBP) of the same molecule?
A: > 1000 nM

Q: What about the Dmax (CBP) of the same molecule?
A: < 20%

Q: Which Dmax (p300) does the source give for `Cc1cc2c(N3CCCc4nc(-c5ccc(C(=O)NCC#Cc6ccc7occ(C8CCC(=O)NC8=O)c7c6)nc5)ncc43)nc(N3CCOCC3)nc2n(C)c1=O` (stereo not drawn) [Example B51, 5-(5-(6,8-dimethyl-2-morpholino-7-oxo-7,8-dihydropyrido[2,3-d]pyrimidin-4-yl)-5,6,7,8-tetrahydropyrido[3,2-d]pyrimidin-2-yl)-N-(3-(3-(2,6-dioxopiperidin-3-yl)benzofuran-5-yl)prop-2-yn-1-yl)picolinamide] here?
A: 40 to 59%

Q: What about the DC50 (p300; A549 P300 HiBit cells) of the same molecule?
A: 1 to 9.9 nM

Q: And the DC50 (CBP)?
A: > 1000 nM

Q: What about the Dmax (CBP) of the same molecule?
A: < 20%

Q: Which results are given for `Cc1cc(N2CCOc3nc(-c4ccc(C(=O)NCC#Cc5ccc6occ(C7CCC(=O)NC7=O)c6c5)nc4)ncc32)cc2c1n(C)c(=O)n2C` (stereo not drawn) [Example A68, N-(3-(3-(2,6-dioxopiperidin-3-yl)benzofuran-5-yl)prop-2-yn-1-yl)-5-(5-(1,3,7-trimethyl-2-oxo-2,3-dihydro-1H-benzo[d]imidazol-5-yl)-6,7-dihydro-5H-pyrimido [4,5-b][1,4]oxazin-2-yl)picolinamide]?
A: Dmax (p300): > 80%; DC50 (p300; A549 P300 HiBit cells): 1 to 9.9 nM; DC50 (CBP): > 1000 nM; Dmax (CBP): < 20%

Q: What does the source list for `CN1Cc2c(-c3cccc4cc(-c5ccc(C(=O)NCC#Cc6ccc7cnn(C8CCC(=O)NC8=O)c7c6)nc5)ncc34)cc(C(C)(F)F)cc2N(C)C1=O` (stereo not drawn) [Example B111, 5-(8-(7-(1,1-difluoroethyl)-1,3-dimethyl-2-oxo-1,2,3,4-tetrahydroquinazolin-5-yl)isoquinolin-3-yl)-N-(3-(1-(2,6-dioxopiperidin-3-yl)-1H-indazol-6-yl)prop-2-yn-1-yl)picolinamide]?
A: DC50 (p300; A549 P300 HiBit cells): 1 to 9.9 nM; DC50 (CBP): 10 to 99 nM

Q: For `Cc1cc2c(N3CCCc4nc(-c5ccc(C(=O)NCC#Cc6cc7c(C8CCC(=O)NC8=O)cccc7s6)nc5)ncc43)cc(C3CCOCC3)cc2n(C)c1=O` (stereo not drawn) [Example B79, 5-(5-(1,3-dimethyl-2-oxo-7-(tetrahydro-2H-pyran-4-yl)-1,2-dihydroquinolin-5-yl)-5,6,7,8-tetrahydropyrido[3,2-d]pyrimidin-2-yl)-N-(3-(4-(2,6-dioxopiperidin-3-yl)benzo[b]thiophen-2-yl)prop-2-yn-1-yl)picolinamide], which Dmax (p300) is on record?
A: > 80%

Q: And the DC50 (p300; A549 P300 HiBit cells)?
A: 1 to 9.9 nM

Q: What about the DC50 (CBP) of the same molecule?
A: > 1000 nM

Q: And the Dmax (CBP)?
A: < 20%

Q: Which results are given for `CC(C)c1cc(-c2cccc3cc(-c4ccc(C(=O)NCC#Cc5ccc6c(c5)c(C5CCC(=O)NC5=O)nn6C)nc4)ncc23)cc2c1n(C)c(=O)n2C` (stereo not drawn) [Example A5, N-(3-(3-(2,6-Dioxopiperidin-3-yl)-1-methyl-1H-indazol-5-yl)prop-2-yn-1-yl)-5-(8-(7-isopropyl-1,3-dimethyl-2-oxo-2,3-dihydro-1H-benzo[d]imidazol-5-yl)isoquinolin-3-yl)picolinamide]?
A: Dmax (p300): > 80%; DC50 (p300; A549 P300 HiBit cells): 1 to 9.9 nM; DC50 (CBP): 10 to 99 nM; Dmax (CBP): > 80%

Q: For `Cc1cc(-c2cc3cccc(-c4cc(C)c5c(c4)n(C)c(=O)n5C)c3cn2)cnc1C(=O)NCC#Cc1ccc2occ(C3CCC(=O)NC3=O)c2c1` (stereo not drawn) [Example A87, N-(3-(3-(2,6-dioxo-piperidin-3-yl)benzofuran-5-yl)prop-2-yn-1-yl)-3-methyl-5-(8-(1,3,7-trimethyl-2-oxo-2,3-dihydro-1H-benzo [d]imidazol-5-yl)isoquinolin-3-yl)picolinamide], which Dmax (p300) is on record?
A: > 80%

Q: What about the DC50 (p300; A549 P300 HiBit cells) of the same molecule?
A: 1 to 9.9 nM

Q: And the DC50 (CBP)?
A: > 1000 nM

Q: And the Dmax (CBP)?
A: < 20%

Q: Which results are given for `[2H]C1COCCC1([2H])c1cc(N2CCCc3nc(-c4ccc(C(=O)NCC#Cc5cc6c(C7CCC(=O)NC7=O)cccc6o5)nc4)ncc32)c2cc(C)c(=O)n(C)c2c1` (stereo not drawn) [Example B23, 5-(5-(1,3-dimethyl-2-oxo-7-(tetrahydro-2H-pyran-4-yl-3,4-d2)-1,2-dihydroquinolin-5-yl)-5,6,7,8-tetrahydropyrido[3,2-d]pyrimidin-2-yl)-N-(3-(4-(2,6-dioxopiperidin-3-yl)benzofuran-2-yl)prop-2-yn-1-yl)picolinamide]?
A: Dmax (p300): > 80%; DC50 (p300; A549 P300 HiBit cells): 1 to 9.9 nM; DC50 (CBP): 100 to 999 nM; Dmax (CBP): < 20%

Q: What does the source list for `Cc1cc(-c2ncc3c(n2)OCCN3c2ccc3c(c2)n(C)c(=O)n3C)cnc1C(=O)NCC#Cc1cc2c(C3CCC(=O)NC3=O)nccc2o1` (stereo not drawn) [Example A195, 5-(5-(1,3-dimethyl-2-oxo-2,3-dihydro-1H-benzo[d]imidazol-5-yl)-6,7-dihydro-5H-pyrimido[4,5-b][1,4]oxazin-2-yl)-N-(3-(4-(2,6-dioxopiperidin-3-yl)furo[3,2-c]pyridin-2-yl)prop-2-yn-1-yl)-3-methylpicolinamide]?
A: Dmax (p300): > 80%; DC50 (p300; A549 P300 HiBit cells): 1 to 9.9 nM; DC50 (CBP): > 1000 nM; Dmax (CBP): < 20%

Q: Which results are given for `Cn1c(=O)n(C)c2cc(-c3cccc4cc(-c5ccc(C(=O)NCC#Cc6cc7c([C@@H]8CCC(=O)NC8=O)cccc7o6)nc5)ncc34)ccc21` [Example A171, (S)-5-(8-(1,3-dimethyl-2-oxo-2,3-dihydro-1H-benzo[d]imidazol-5-yl)isoquinolin-3-yl)-N-(3-(4-(2,6-dioxopiperidin-3-yl)benzofuran-2-yl)prop-2-yn-1-yl)picolinamide]?
A: Dmax (p300): > 80%; DC50 (p300; A549 P300 HiBit cells): 1 to 9.9 nM; DC50 (CBP): > 1000 nM; Dmax (CBP): < 20%

Q: `Cc1cc2c(N3CCCc4nc(-c5ccc(C(=O)NCC#Cc6ccc7occ(C8CCC(=O)NC8=O)c7c6)nc5)ncc43)nc(N3CCOCC3)cc2n(C)c1=O` (stereo not drawn) [Example B62, 5-(5-(1,3-dimethyl-7-morpholino-2-oxo-1,2-dihydro-1,6-naphthyridin-5-yl)-5,6,7,8-tetrahydropyrido[3,2-d]pyrimidin-2-yl)-N-(3-(3-(2,6-dioxopiperidin-3-yl)benzofuran-5-yl)prop-2-yn-1-yl)picolinamide] was tested. Which Dmax (p300) did it give?
A: > 80%

Q: And the DC50 (p300; A549 P300 HiBit cells)?
A: 1 to 9.9 nM

Q: What about the DC50 (CBP) of the same molecule?
A: > 1000 nM

Q: What about the Dmax (CBP) of the same molecule?
A: < 20%

Q: `Cn1c(=O)n(C)c2cc(-c3cccc4cc(-c5ccc(C(=O)NCC#Cc6cc7c(C8CCC(=O)NC8=O)nccc7o6)nc5)ncc34)ccc21` (stereo not drawn) [Example A213, 5-(8-(1,3-dimethyl-2-oxo-2,3-dihydro-1H-benzo[d]imidazol-5-yl)isoquinolin-3-yl)-N-(3-(4-(2,6-dioxo-piperidin-3-yl)furo[3,2-c]pyridin-2-yl)prop-2-yn-1-yl)picolinamide] was tested. Which Dmax (p300) did it give?
A: > 80%

Q: What about the DC50 (p300; A549 P300 HiBit cells) of the same molecule?
A: < 1 nM

Q: And the DC50 (CBP)?
A: > 1000 nM

Q: What about the Dmax (CBP) of the same molecule?
A: < 20%

Q: `CC(C)c1cc(-c2cccc3cc(-c4ccc(C(=O)NCC#Cc5cccc(NC67CC(C6)C(=O)NC7=O)c5)nc4)ncc23)cc2c1n(C)c(=O)n2C` [Example A2, N-(3-(3-((2,4-Dioxo-3-azabicyclo[3.1.1]heptan-1-yl)amino)phenyl)prop-2-yn-1-yl)-5-(8-(7-isopropyl-1,3-dimethyl-2-oxo-2,3-dihydro-1H-benzo[d]imidazol-5-yl)isoquinolin-3-yl)picolinamide] was tested. Which Dmax (p300) did it give?
A: > 80%

Q: What about the DC50 (p300; A549 P300 HiBit cells) of the same molecule?
A: 10 to 99 nM

Q: And the DC50 (CBP)?
A: > 1000 nM

Q: What about the Dmax (CBP) of the same molecule?
A: < 20%
